Measured values published in ChEMBL document CHEMBL5212743, “Selectivity Literature for EUbOPEN Chemogenomics Library wave 3” (2023).
Changes are numbered by the printed parent chain.

Experiments:
Conditions in all cases: at 1 µM
[1] = system: T1, Receptor-type tyrosine-protein kinase FLT3 (Homo sapiens), P36888 [D835V]; test: (§1) Selectivity interaction (KinomeScan (DiscoverX)) EUB0000702a FLT3
T1 sequence (whole entry): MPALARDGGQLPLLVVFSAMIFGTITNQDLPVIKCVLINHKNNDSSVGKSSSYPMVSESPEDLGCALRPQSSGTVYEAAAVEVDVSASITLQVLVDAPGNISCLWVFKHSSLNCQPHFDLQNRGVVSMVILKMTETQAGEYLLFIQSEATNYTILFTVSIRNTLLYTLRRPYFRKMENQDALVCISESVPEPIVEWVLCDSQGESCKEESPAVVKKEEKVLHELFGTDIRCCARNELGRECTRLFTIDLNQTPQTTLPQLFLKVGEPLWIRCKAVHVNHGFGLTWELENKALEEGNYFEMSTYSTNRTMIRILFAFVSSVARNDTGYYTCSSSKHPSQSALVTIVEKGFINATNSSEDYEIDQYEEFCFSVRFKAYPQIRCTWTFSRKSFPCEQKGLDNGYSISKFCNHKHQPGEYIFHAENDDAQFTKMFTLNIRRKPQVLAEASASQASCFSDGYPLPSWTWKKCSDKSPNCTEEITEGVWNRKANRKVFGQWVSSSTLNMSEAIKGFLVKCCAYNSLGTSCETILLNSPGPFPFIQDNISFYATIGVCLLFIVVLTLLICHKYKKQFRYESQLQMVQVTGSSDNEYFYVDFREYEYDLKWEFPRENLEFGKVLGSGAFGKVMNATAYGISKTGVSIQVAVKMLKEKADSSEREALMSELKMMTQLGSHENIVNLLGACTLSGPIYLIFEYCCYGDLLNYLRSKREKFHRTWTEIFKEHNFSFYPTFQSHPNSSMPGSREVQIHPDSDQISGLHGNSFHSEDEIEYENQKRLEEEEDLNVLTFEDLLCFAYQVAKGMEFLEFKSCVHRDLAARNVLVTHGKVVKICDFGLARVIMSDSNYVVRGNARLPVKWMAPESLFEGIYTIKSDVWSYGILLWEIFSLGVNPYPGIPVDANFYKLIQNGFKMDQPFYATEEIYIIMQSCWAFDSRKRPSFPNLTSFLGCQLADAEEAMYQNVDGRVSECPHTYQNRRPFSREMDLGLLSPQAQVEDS

[2] = target: Receptor-type tyrosine-protein kinase FLT3 (Homo sapiens) (UniProt P36888); test: as §1
[3] = system: T2, Receptor-type tyrosine-protein kinase FLT3 (Homo sapiens), P36888 [D835Y]; test: as §1
T2 sequence (whole entry): T1 sequence (whole entry) with V835Y

[4] = system: T3, Receptor-type tyrosine-protein kinase FLT3 (Homo sapiens), P36888 [N841I]; test: as §1
T3 sequence (whole entry): T1 sequence (whole entry) with V835D, N841I

[5] = system: Receptor-type tyrosine-protein kinase FLT3 (Homo sapiens), P36888 [UNDEFINED MUTATION]; test: as §1

% of control [1]: 1.5%
% of control [2]: 5.5%
% of control [3]: 2%
% of control [4]: 0%
% of control [5]: 0.7%
Compound: CN(c1ccnc(CNc2nc(Nc3ccc4c(c3)CC(=O)N4)ncc2C(F)(F)F)n1)S(C)(=O)=O [PF-00911705]
